These are literature values, as cited in patent US20260207488A1, “Liquid pharmaceutical composition containing flecainide and process for the preparation thereof” (Colonis Pharma Ltd, priority 2022, published 2026).

Each structure is given as a SMILES string.

The conditions of data set [1]: water.

Take `CC(=O)O.O=C(NCC1CCCCN1)c1cc(OCC(F)(F)F)ccc1OCC(F)(F)F` (centres unmarked) [Flecainide Acetate, N-(2-piperidinylmethyl)-2,5-bis(2,2,2-trifluoroethoxy)benzamide monoacetate]: the “solubility (BCS)” value is reported as “high solubility”. In addition, the aqueous solubility entry in data set [1] is given as “about 48.0 mg/mL”.
